We go through 15 compounds from US8299048B2, “Hexahydrocyclopentyl[f]indazole sulfonamides and derivatives thereof as selective glucocorticoid receptor modulators” (Merck Sharp & Dohme Corp., priority 2008, dated 2012).

This assay concerns the target T1, human GR (Homo sapiens, UniProt P04150).
T1 sequence (P04150 1-777): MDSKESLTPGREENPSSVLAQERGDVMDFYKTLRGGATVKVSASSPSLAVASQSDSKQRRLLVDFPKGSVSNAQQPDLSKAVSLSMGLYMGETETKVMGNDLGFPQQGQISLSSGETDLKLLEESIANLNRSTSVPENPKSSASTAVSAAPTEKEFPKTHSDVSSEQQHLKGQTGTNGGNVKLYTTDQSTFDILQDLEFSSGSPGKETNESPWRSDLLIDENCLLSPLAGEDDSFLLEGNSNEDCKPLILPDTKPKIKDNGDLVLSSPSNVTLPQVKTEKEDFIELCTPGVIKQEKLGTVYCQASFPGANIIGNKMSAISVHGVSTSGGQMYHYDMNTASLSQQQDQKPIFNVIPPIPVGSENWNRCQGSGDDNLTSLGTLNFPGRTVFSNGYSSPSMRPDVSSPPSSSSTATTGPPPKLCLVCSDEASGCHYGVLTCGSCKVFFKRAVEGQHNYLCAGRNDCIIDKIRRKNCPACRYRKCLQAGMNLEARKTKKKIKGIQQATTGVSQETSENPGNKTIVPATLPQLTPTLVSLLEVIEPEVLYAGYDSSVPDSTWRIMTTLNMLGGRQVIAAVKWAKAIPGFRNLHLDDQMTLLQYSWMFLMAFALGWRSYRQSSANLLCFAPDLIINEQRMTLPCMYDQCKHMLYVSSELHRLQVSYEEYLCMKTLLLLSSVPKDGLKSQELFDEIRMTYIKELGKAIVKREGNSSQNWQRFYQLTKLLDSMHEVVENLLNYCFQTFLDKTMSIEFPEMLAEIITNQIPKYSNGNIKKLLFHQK
In words: Transrepression Assay (GITAR), TNFα-β-lactamase reporter in U937 cells. Type of assay: cell-based. Set-up: U937 cells contain an endogenous glucocorticoid receptor (GR); endogenous in cells; host or cells: U937 cells stably transfected with the TNF-alpha promoter/beta-lactamase reporter. Conditions: for GITAR > GRAMM % SEP: GITAR Emax minus GRAMMER Emax; for EC50: U937 cells, inflection point, read-out: Transrepression U937 Cells GITAR IP. In short, it runs like this: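 Repression normalised to 100 nM dexamethasone (100%), measured with CCF2-AM β-lactamase substrate after 70–90 min at room temperature. Stably transfected U937 cells were exposed to compound 30–45 min, then to PMA (5 ng/ml final) plus LPS (100 ng/ml final) overnight (~18 hr), 37° C.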

Where [1] appears, read: U-937, U937 cells, maximum activity, read-out: Transrepression U937 Cells GITAR Emax.
Setting [2] is: U-937, activity repressed by 100 nM dexamethasone alone set as 100%, read-out: maximal activity in the transrepression (GITAR) assay.

Like-named read-outs stand apart in the source and are kept apart here.

Take `COc1ccccc1CCN(C[C@H]1CCC2=Cc3c(cnn3-c3ccc(F)cc3)C[C@@]21C)S(=O)(=O)Cc1cccc(C(F)(F)F)c1` [Example 119, N-{[(4αR,5S)-1-(4-fluorophenyl)-4α-methyl-1,4,4α,5,6,7-hexahydrocyclopenta[f]indazol-5-yl]methyl}-N-[2-(2-methoxyphenyl)ethyl]-1-[3-(trifluoromethyl)phenyl]methanesulfonamide]: the “GITAR > GRAMM % SEP” value was determined as 9.3% and the EC50 came to 605 nM. For the same compound, the Emax under setting [1] was 15.9%. Also, the Emax under setting [2] is over 5%.

As to `COc1ccccc1CCN(C[C@H]1CCC2=Cc3c(cnn3-c3ccc(F)cc3)C[C@@]21C)S(=O)(=O)CC(F)(F)F` [Example 120, 2,2,2-trifluoro-N-{[(4αR,5S)-1-(4-fluorophenyl)-4α-methyl-1,4,4α,5,6,7-hexahydrocyclopenta[f]indazol-5-yl]methyl}-N-[2-(2-methoxyphenyl)ethyl]ethanesulfonamide], the “GITAR > GRAMM % SEP” value turned out to be 18.2% and the EC50 turned out to be 77.8 nM. For the same compound, the Emax under setting [1] amounted to 91.5%. For the same compound, the Emax under setting [2] was over 5%.

Take `C[C@]12Cc3cnn(-c4ccc(F)cc4)c3C=C1CC[C@@H]2CN(CCc1ccccc1F)S(=O)(=O)CCN1C(=O)c2ccccc2C1=O` [Example 121, 2-(1,3-dioxo-1,3-dihydro-2H-isoindol-2-yl)-N-[2-(2-fluorophenyl)ethyl]-N-{[(4αR,5S)-1-(4-fluorophenyl)-4α-methyl-1,4,4α,5,6,7-hexahydrocyclopenta[f]indazol-5-yl]methyl}ethanesulfonamide]: the “GITAR > GRAMM % SEP” value is reported as 17.9% and the EC50 was found to be 156 nM. The Emax under setting [1] is 33.8%. The Emax under setting [2] was over 5%.

As to `C[C@]12Cc3cnn(-c4ccc(F)cc4)c3C=C1CC[C@@H]2CN(CCc1ccccc1O)S(=O)(=O)Cc1cccc(C(F)(F)F)c1` [Example 122, N-{[(4αR,5S)-1-(4-fluorophenyl)-4α-methyl-1,4,4α,5,6,7-hexahydrocyclopenta[f]indazol-5-yl]methyl}-N-[2-(2-hydroxyphenyl)ethyl]-1-[3-(trifluoromethyl)phenyl]methanesulfonamide], the “GITAR > GRAMM % SEP” value is 30.8% and the EC50 amounted to 417 nM. The Emax under setting [1] stood at 39.7%. Under setting [2], the Emax was over 5%.

For the compound `Cc1noc(C)c1S(=O)(=O)N(CCc1ccccc1O)C[C@H]1CCC2=Cc3c(cnn3-c3ccc(F)cc3)C[C@@]21C` [Example 123, N-{[(4αR,5S)-1-(4-fluorophenyl)-4α-methyl-1,4,4α,5,6,7-hexahydrocyclopenta[f]indazol-5-yl]methyl}-N-[2-(2-hydroxyphenyl)ethyl]-3,5-dimethylisoxazole-4-sulfonamide], the “GITAR > GRAMM % SEP” value came out at 25.4% and the EC50 amounted to 128 nM. In addition, the Emax under setting [1] turned out to be 90.8%. Besides, the Emax under setting [2] was over 5%.

As for `C[C@]12Cc3cnn(-c4ccc(F)cc4)c3C=C1CC[C@@H]2CN(CCc1ccccc1F)S(=O)(=O)Cc1cccnc1` [Example 124, N-[2-(2-fluorophenyl)ethyl]-N-{[(4αR,5S)-1-(4-fluorophenyl)-4α-methyl-1,4,4α,5,6,7-hexahydrocyclopenta[f]indazol-5-yl]methyl}-1-pyridin-3-ylmethanesulfonamide], the “GITAR > GRAMM % SEP” value is given as 1.3% and the EC50 came to 251 nM. Further, the Emax under setting [1] amounted to 100%. The Emax under setting [2] is over 5%.

Turning to `COc1ccccc1CCN(C[C@H]1CCC2=Cc3c(cnn3-c3ccc(F)cc3)C[C@@]21C)S(=O)(=O)Cc1cccnc1` [Example 125, N-{[(4αR,5S)-1-(4-fluorophenyl)-4α-methyl-1,4,4α,5,6,7-hexahydrocyclopenta[f]indazol-5-yl]methyl}-N-[2-(2-methoxyphenyl)ethyl]-1-pyridin-3-ylmethanesulfonamide], the “GITAR > GRAMM % SEP” value is listed as 34.1% and the EC50 was determined as 575 nM. For the same compound, the Emax under setting [1] was determined as 55.3%. For the same compound, the Emax under setting [2] is over 5%.

Take `COc1cccc(CCN(C[C@H]2CCC3=Cc4c(cnn4-c4ccc(F)cc4)C[C@@]32C)S(=O)(=O)CC(F)(F)F)c1` [Example 126, 2,2,2-trifluoro-N-{[(4αR,5S)-1-(4-fluorophenyl)-4α-methyl-1,4,4α,5,6,7-hexahydrocyclopenta[f]indazol-5-yl]methyl}-N-[2-(3-methoxyphenyl)ethyl]ethanesulfonamide]: the “GITAR > GRAMM % SEP” value was 11.7% and the EC50 was found to be 233 nM. For the same compound, under setting [1], the Emax turned out to be 90%. In addition, under setting [2], the Emax is over 5%.

Regarding `COc1ccc(CCN(C[C@H]2CCC3=Cc4c(cnn4-c4ccc(F)cc4)C[C@@]32C)S(=O)(=O)CC(F)(F)F)cc1` [Example 127, 2,2,2-trifluoro-N-{[(4αR,5S)-1-(4-fluorophenyl)-4α-methyl-1,4,4α,5,6,7-hexahydrocyclopenta[f]indazol-5-yl]methyl}-N-[2-(4-methoxyphenyl)ethyl]ethanesulfonamide], the “GITAR > GRAMM % SEP” value is 15.1% and the EC50 was 202 nM. Further, under setting [1], the Emax was determined as 83%. Moreover, the Emax under setting [2] was over 5%.

`C[C@]12Cc3cnn(-c4ccc(F)cc4)c3C=C1CC[C@@H]2CN(CCc1ccccn1)S(=O)(=O)CC(F)(F)F` [Example 128, 2,2,2-trifluoro-N-{[(4αR,5S)-1-(4-fluorophenyl)-4α-methyl-1,4,4α,5,6,7-hexahydrocyclopenta[f]indazol-5-yl]methyl}-N-(2-pyridin-2-ylethyl)ethanesulfonamide]: the “GITAR > GRAMM % SEP” value is 19.3% and the EC50 was determined as 324 nM. Moreover, the Emax under setting [1] was 88.4%. Also, under setting [2], the Emax was over 5%.

In the case of `C[C@]12Cc3cnn(-c4ccc(F)cc4)c3C=C1CC[C@@H]2CN(CCc1ccncc1)S(=O)(=O)CC(F)(F)F` [Example 129, 2,2,2-trifluoro-N-{[(4αR,5S)-1-(4-fluorophenyl)-4α-methyl-1,4,4α,5,6,7-hexahydrocyclopenta[f]indazol-5-yl]methyl}-N-(2-pyridin-4-ylethyl)ethanesulfonamide], the “GITAR > GRAMM % SEP” value came to 11.9% and the EC50 turned out to be 623 nM. The Emax under setting [1] worked out at 79.1%. For the same compound, the Emax under setting [2] was over 5%.

For the compound `C[C@]12Cc3cnn(-c4ccc(F)cc4)c3C=C1CC[C@@H]2CN(CCc1ccc(O)cc1)S(=O)(=O)CC(F)(F)F` [Example 130, 2,2,2-trifluoro-N-{[(4αR,5S)-1-(4-fluorophenyl)-4α-methyl-1,4,4α,5,6,7-hexahydrocyclopenta[f]indazol-5-yl]methyl}-N-[2-(4-hydroxyphenyl)ethyl]ethanesulfonamide], the “GITAR > GRAMM % SEP” value came to 13.6% and the EC50 turned out to be 229 nM. Besides, under setting [1], the Emax was determined as 79.7%. The Emax under setting [2] is over 5%.

For the compound `C[C@]12Cc3cnn(-c4ccc(F)cc4)c3C=C1CC[C@@H]2CN(CCc1ccccc1O)S(=O)(=O)Cc1cccnc1` [Example 131, N-{[(4αR,5S)-1-(4-fluorophenyl)-4α-methyl-1,4,4α,5,6,7-hexahydrocyclopenta[f]indazol-5-yl]methyl}-N-[2-(2-hydroxyphenyl)ethyl]-1-pyridin-3-ylmethanesulfonamide], the “GITAR > GRAMM % SEP” value is 22.9% and the EC50 was determined as 437 nM. For the same compound, under setting [1], the Emax came to 60.3%. For the same compound, the Emax under setting [2] is over 5%.

On to `C[C@]12Cc3cnn(-c4ccc(F)cc4)c3C=C1CC[C@@H]2CN(Cc1cccnn1)S(=O)(=O)CC(F)(F)F` [Example 132, 2,2,2-trifluoro-N-{[(4αR,5S)-1-(4-fluorophenyl)-4α-methyl-1,4,4α,5,6,7-hexahydrocyclopenta[f]indazol-5-yl]methyl}-N-(pyridazin-3-ylmethyl)ethanesulfonamide], for which the “GITAR > GRAMM % SEP” value is 50.8% and the EC50 worked out at 791 nM. Moreover, the Emax under setting [1] came to 74%. Also, the Emax under setting [2] is over 5%.

As to `C[C@]12Cc3cnn(-c4ccc(F)cc4)c3C=C1CC[C@@H]2CN(CC(O)C(F)F)S(=O)(=O)CC(F)(F)F` (stereo partly drawn) [Example 133, N-(3,3-difluoro-2-hydroxypropyl)-2,2,2-trifluoro-N-{[(4αR,5S)-1-(4-fluorophenyl)-4α-methyl-1,4,4α,5,6,7-hexahydrocyclopenta[f]indazol-5-yl]methyl}ethanesulfonamide], the “GITAR > GRAMM % SEP” value is reported as 22.5% and the EC50 was found to be 82.6 nM. For the same compound, the Emax under setting [1] was found to be 95.9%. Moreover, the Emax under setting [2] is over 5%.
